Measured values taken from patent publication US20220064138A1, “MACROLIDE BREFELDIN A ESTER DERIVATIVES AND USE THEREOF” (OCEAN UNIVERSITY OF CHINA, priority 2019, published 2022).

Experiments:
[1] = system: human lung cancer A549 cells; assay: Cell proliferation assay (CCK-8); format: cell-based; details: A549, 72 h
Description: (§1) CCK-8 method: The CCK-8 method is a highly sensitive, non-radioactive colorimetric assay for the determination of the number of viable cells in cell proliferation or cytotoxicity assays. The orange formazan dye produced by the bioreduction of CCK-8 by intracellular dehydrogenase is soluble in the cell culture medium, and the amount of formazan dye produced is proportional to the number of living cells. The kit used in this method is the tetrazolium salt-WST-8 (2-(2-methoxy-4-nitrophenyl)-3-(4-nitrophenyl)-5-(2,4-disulfophenyl)-2H-tetrazolium monosodium salt) developed by Dojindo Chemical Research Institute (Dojindo), which is capable of being reduced to a water-soluble formazan dye in the presence of the electronic carrier 1-Methoxy PMS.
(§2) Human cervical cancer Hela cells, pancreatic cancer PANC-1 cells, esophageal cancer Eca-109 cells, human leukemia K562 cells, human lung cancer A549 cells, human liver cancer HepG2 cells, human gastric cancer MKN-45 cells, human breast cancer MCF7 cells were cultured in DMEM medium containing 10% FBS (fetal bovine serum), 100 U/mL penicillin and 100 μg/ml streptomycin. Hepatocellular carcinoma cells Bel-7402 were cultured in RPMI-1640 medium containing 10% FBS (fetal bovine serum), 100 U/ml penicillin and 100 μg/ml streptomycin. All cells were placed in a cell culture incubator at 37° C. with 5% CO2. Cells fluid was changed every 3-5 days, and after 80% cell fusion, trypsin digestion and passaging were performed to keep the cells in good logarithmic growth phase.
(§3) All the samples to be tested were dissolved in DMSO.
(§4) Cells in logarithmic growth phase were inoculated in 96-well plates with 5000 cells/well respectively, and after 24 h of incubation, samples were added (final concentrations as shown in the table), and biplicate wells were set up for each sample. The amount of solvent of DMSO was not higher than 2‰. After 72 h, 10 μL of CCK-8 solution was added to each well and incubated for 1.5˜3 h at 37° C. The OD value at 450 nm was measured on an plate reader.
(§5) Inhibition rate (%)=(1−[(OD450 dosed well−OD450 blank well)/(OD450 control well−OD450 blank well)])×100%
(§6) The fitted IC50 values were calculated using the log (inhibitor) vs. response-Variable slop analysis method in GraphPad Prism software.

[2] = system: human liver cancer HepG2 cells; assay: Cell proliferation assay (CCK-8); format: cell-based; details: HepG2, 72 h
Description: as §1, §2, §3, §4, §5, §6

[3] = system: pancreatic cancer PANC-1 cells; assay: Cell proliferation assay (CCK-8); format: cell-based; details: Homo sapiens, PANC-1, 72 h
Description: as §1, §2, §3, §4, §5, §6

[4] = system: human gastric cancer MKN-45 cells; assay: Cell proliferation assay (CCK-8); format: cell-based; details: MKN-45, 72 h
Description: as §1, §2, §3, §4, §5, §6

[5] = system: Human cervical cancer Hela cells; assay: Cell proliferation assay (CCK-8); format: cell-based; details: 72 h
Description: as §1, §2, §3, §4, §5, §6

[6] = system: human leukemia K562 cells; assay: Cell proliferation assay (CCK-8); format: cell-based; details: K562, 72 h
Description: as §1, §2, §3, §4, §5, §6

[7] = system: esophageal cancer Eca-109 cells; assay: Cell proliferation assay (CCK-8); format: cell-based; details: Homo sapiens, Eca-109, 72 h
Description: as §1, §2, §3, §4, §5, §6

[8] = system: human breast cancer MCF7 cells; assay: Cell proliferation assay (CCK-8); format: cell-based; details: MCF7, 72 h
Description: as §1, §2, §3, §4, §5, §6

[9] = system: Kunming breed mice; assay: Toxicity test after intraperitoneal administration to mice; format: in vivo; details: 14 d
Experimental: Objective: Observation of toxic effects of compounds after intraperitoneally administration (ip.) to mice
1) Agents: Compounds disclosed herein were formulated to a suitable concentration.
2) Animals: Kunming breed mice, weight 18-22 g, male. Provided by Jinan Pengyue Laboratory Animal Breeding Co., Ltd. Animal license number: SCXK (Shandong 20140007)
Method: Kunming breed mice, were randomly grouped by weight, 6 mice per group, namely normal control group, BFA high and low dose groups (100 mg/kg and 50 mg/kg, respectively), and high and low dose groups of some compounds disclosed herein (BFA effective amount conversion). […] After 14 d of continuous administration, all the animals were weighed, and the animals were executed to observe whether there were any abnormalities in the organs.

[10] = male, Kunming, mouse, in vivo, ip

SMILES | IC50 [1] | IC50 [2] | IC50 [3] | IC50 [4] | IC50 [5] | IC50 [6] | IC50 [7] | IC50 [8] | Deaths ([9]; high and low doses (BFA effective amount conversion), ip., mice) | Mental condition of the animals after administration [9, 10] | Results of anatomy: abnormality in organs [9, 10]
Cc1ccccc1/C=C/C(=O)O[C@@H]1C[C@@H]2[C@H](/C=C/CCC[C@H](C)OC(=O)/C=C/[C@H]2OC(=O)/C=C/c2ccccc2C)C1 [Compound 8c, 4,7-O-bis(2-methylcinnamic acid)acyl BFA] | 1 to 10 µM | 1 to 10 µM | 1 to 10 µM | 0.1 to 1 µM | 1 to 10 µM | 1 to 10 µM | 0.1 to 1 µM | 1 to 10 µM |  |  | 
C[C@H]1CCC/C=C/[C@@H]2C[C@H](OC(=O)/C=C/c3ccc4c(c3)OCO4)C[C@H]2[C@H](O)/C=C/C(=O)O1 [Compound 9a, 7-O—((E)-3-(benzo[d][1,3]dioxa-5-yl)acrylic acid)acyl BFA] | 0.1 to 1 µM | 1 to 10 µM | 0.1 to 1 µM | 0.1 to 1 µM | 1 to 10 µM | 0.1 to 1 µM | 1 to 10 µM | 0.1 to 1 µM |  |  | 
C[C@H]1CCC/C=C/[C@@H]2C[C@H](OC(=O)/C=C/c3ccc4c(c3)OCO4)C[C@H]2C(OC(=O)/C=C/c2ccc3c(c2)OCO3)/C=C/C(=O)O1 (stereo partly drawn) [Compound 9c, 4,7-O-bis((E)-3-(benzo[d][1,3]dioxa-5-yl)acrylic acid)acyl BFA] | 1 to 10 µM | 1 to 10 µM | 1 to 10 µM | 0.1 to 1 µM | 1 to 10 µM | 0.1 to 1 µM | 1 to 10 µM | 1 to 10 µM |  |  | 
COc1cc(/C=C/C(=O)O[C@@H]2C[C@H]3[C@H](O)/C=C/C(=O)O[C@@H](C)CCC/C=C/[C@@H]3C2)cc(OC)c1OC [Compound 11a, 7-O-(3,4,5-trimethoxycinnamic acid)acyl BFA] | 0.1 to 1 µM | 0.1 to 1 µM | 0.1 to 1 µM | 0.1 to 1 µM | 1 to 10 µM | 0.1 to 1 µM | 1 to 10 µM | 0.1 to 1 µM |  |  | 
COc1cc(/C=C/C(=O)O[C@@H]2/C=C/C(=O)O[C@@H](C)CCC/C=C/[C@@H]3C[C@H](O)C[C@H]32)cc(OC)c1OC [Compound 11b, 4-O-(3,4,5-trimethoxycinnamic acid)acyl BFA] | 0.1 to 1 µM | 0.1 to 1 µM | 0.1 to 1 µM | 0.1 to 1 µM | 1 to 10 µM | 0.1 to 1 µM | 1 to 10 µM | 0.1 to 1 µM |  |  | 
COc1cc(/C=C/C(=O)O[C@@H]2C[C@@H]3[C@H](/C=C/CCC[C@H](C)OC(=O)/C=C/[C@H]3OC(=O)/C=C/c3cc(OC)c(OC)c(OC)c3)C2)cc(OC)c1OC [Compound 11c, 4,7-O-bis(3,4,5-trimethoxycinnamic acid)acyl BFA] | 0.1 to 1 µM | 1 to 10 µM | 1 to 10 µM | 1 to 10 µM | 1 to 10 µM | 0.1 to 1 µM | 1 to 10 µM | 1 to 10 µM |  |  | 
C[C@H]1CCC/C=C/[C@@H]2C[C@H](OC(=O)/C=C/c3ccc(C(F)(F)F)cc3)C[C@H]2[C@H](O)/C=C/C(=O)O1 [Compound 13a, 7-O-(4-trifluoromethylcinnamic acid)acyl BFA] | 0.1 to 1 µM | 0.1 to 1 µM | 0.1 to 1 µM | 0.1 to 1 µM | 0.1 to 1 µM | 0.1 to 1 µM | 0.1 to 1 µM | 0.1 to 1 µM |  |  | 
C[C@H]1CCC/C=C/[C@@H]2C[C@H](O)C[C@H]2[C@H](OC(=O)/C=C/c2ccc(C(F)(F)F)cc2)/C=C/C(=O)O1 [Compound 13b, 4-O-(4-trifluoromethylcinnamic acid)acyl BFA] | 0.1 to 1 µM | 0.1 to 1 µM | 0.1 to 1 µM | 0.1 to 1 µM | 0.1 to 1 µM | 0.1 to 1 µM | 0.1 to 1 µM | 0.1 to 1 µM |  |  | 
C[C@H]1CCC/C=C/[C@@H]2C[C@H](OC(=O)/C=C/c3ccc(C(F)(F)F)cc3)C[C@H]2[C@H](OC(=O)/C=C/c2ccc(C(F)(F)F)cc2)/C=C/C(=O)O1 [Compound 13c, 4,7-O-bis(4-trifluoromethylcinnamic acid)acyl BFA] | 0.1 to 1 µM | 1 to 10 µM | 1 to 10 µM | 1 to 10 µM | 1 to 10 µM | 0.1 to 1 µM | 1 to 10 µM | 1 to 10 µM |  |  | 
C[C@H]1CCC/C=C/[C@@H]2C[C@H](OC(=O)/C=C/c3ccncc3)C[C@H]2[C@H](O)/C=C/C(=O)O1 [Compound 14a, 7-O-(3-(pyridine-4-yl)acrylic acid)acyl BFA] | 0.1 to 1 µM | < 0.1 µM | < 0.1 µM | 0.1 to 1 µM | 0.1 to 1 µM | 0.1 to 1 µM | 1 to 10 µM | 0.1 to 1 µM |  |  | 
C[C@H]1CCC/C=C/[C@@H]2C[C@H](O)C[C@H]2[C@H](OC(=O)/C=C/c2ccncc2)/C=C/C(=O)O1 [Compound 14b] | 0.1 to 1 µM | < 0.1 µM | < 0.1 µM | 0.1 to 1 µM | 0.1 to 1 µM | 0.1 to 1 µM | 1 to 10 µM | 0.1 to 1 µM |  |  | 
C[C@H]1CCC/C=C/[C@@H]2C[C@H](OC(=O)/C=C/c3ccncc3)C[C@H]2[C@H](OC(=O)/C=C/c2ccncc2)/C=C/C(=O)O1 [Compound 14c] | 0.1 to 1 µM | 0.1 to 1 µM | 1 to 10 µM | 0.1 to 1 µM | 1 to 10 µM | 0.1 to 1 µM | 1 to 10 µM | 1 to 10 µM |  |  | 
C[C@H]1CCC/C=C/[C@@H]2C[C@H](OC(=O)/C=C/c3ccccn3)C[C@H]2[C@H](O)/C=C/C(=O)O1 [Compound 15a, 7-O-(3-(pyridine-2-yl)acrylic acid)acyl BFA] | 0.1 to 1 µM | < 0.1 µM | < 0.1 µM | 0.1 to 1 µM | 0.1 to 1 µM | 0.1 to 1 µM | 1 to 10 µM | 0.1 to 1 µM |  |  | 
C[C@H]1CCC/C=C/[C@@H]2C[C@H](O)C[C@H]2[C@H](OC(=O)/C=C/c2ccccn2)/C=C/C(=O)O1 [Compound 15b] | 0.1 to 1 µM | < 0.1 µM | < 0.1 µM | 0.1 to 1 µM | 0.1 to 1 µM | 0.1 to 1 µM | 0.1 to 1 µM | 0.1 to 1 µM |  |  | 
C[C@H]1CCC/C=C/[C@@H]2C[C@H](OC(=O)/C=C/c3ccccn3)C[C@H]2[C@H](OC(=O)/C=C/c2ccccn2)/C=C/C(=O)O1 [Compound 15c] | 0.1 to 1 µM | 0.1 to 1 µM | 0.1 to 1 µM | 1 to 10 µM | 1 to 10 µM | 0.1 to 1 µM | 1 to 10 µM | 0.1 to 1 µM |  |  | 
C[C@H]1CCC/C=C/[C@@H]2C[C@H](O)C[C@H]2[C@H](OC(=O)/C=C/c2cccnc2)/C=C/C(=O)O1 [Compound 16b] | 0.1 to 1 µM | < 0.1 µM | < 0.1 µM | 0.1 to 1 µM | 0.1 to 1 µM | 0.1 to 1 µM | 0.1 to 1 µM | 0.1 to 1 µM | no deaths | good mental condition | no significant abnormality in all organs
C[C@H]1CCC/C=C/[C@@H]2C[C@H](OC(=O)/C=C/c3cnc4ccccc4c3)C[C@H]2[C@H](O)/C=C/C(=O)O1 [Compound 17a, 7-O-(3-(quinoline-3-yl)acrylic acid)acyl BFA] | 0.1 to 1 µM | < 0.1 µM | < 0.1 µM | 0.1 to 1 µM | 0.1 to 1 µM | 0.1 to 1 µM | 0.1 to 1 µM | 0.1 to 1 µM |  |  | 
C[C@H]1CCC/C=C/[C@@H]2C[C@H](O)C[C@H]2[C@H](OC(=O)/C=C/c2cnc3ccccc3c2)/C=C/C(=O)O1 [Compound 17b] | 0.1 to 1 µM | < 0.1 µM | < 0.1 µM | 0.1 to 1 µM | 0.1 to 1 µM | 0.1 to 1 µM | 0.1 to 1 µM | 0.1 to 1 µM |  |  | 
